Experimental data: ChEMBL document CHEMBL4433263, “Tapping the therapeutic potential of protein tyrosine phosphatase 4A with small molecule inhibitors” (Bioorg Med Chem Lett, 2019)
pIC50: −log10 of the molar value.

Legend:
[1] = biological target: T1, Protein tyrosine phosphatase type IVA 1 (Homo sapiens, UniProt Q93096); assay: Inhibition of PTP4A1 (unknown origin)
T1 sequence (Q93096 whole entry): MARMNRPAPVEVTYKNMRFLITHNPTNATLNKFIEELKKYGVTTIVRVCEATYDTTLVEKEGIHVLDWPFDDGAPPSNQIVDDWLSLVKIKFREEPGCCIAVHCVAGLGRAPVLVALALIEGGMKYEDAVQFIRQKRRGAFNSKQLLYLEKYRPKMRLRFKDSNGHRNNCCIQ

[2] = biological target: T2, Protein tyrosine phosphatase type IVA 2 (Homo sapiens, UniProt Q12974); assay: Inhibition of PTP4A2 (unknown origin)
T2 sequence (Q12974 whole entry): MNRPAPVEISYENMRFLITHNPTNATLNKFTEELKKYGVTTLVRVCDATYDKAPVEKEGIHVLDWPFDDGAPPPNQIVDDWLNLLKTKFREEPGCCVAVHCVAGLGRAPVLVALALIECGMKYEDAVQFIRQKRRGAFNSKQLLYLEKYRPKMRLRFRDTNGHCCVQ

[3] = biological target: Protein tyrosine phosphatase type IVA 3 (Homo sapiens, UniProt O75365); assay: Inhibition of PTP4A3 (unknown origin)
Chain of Protein tyrosine phosphatase type IVA 3 (O75365 whole entry): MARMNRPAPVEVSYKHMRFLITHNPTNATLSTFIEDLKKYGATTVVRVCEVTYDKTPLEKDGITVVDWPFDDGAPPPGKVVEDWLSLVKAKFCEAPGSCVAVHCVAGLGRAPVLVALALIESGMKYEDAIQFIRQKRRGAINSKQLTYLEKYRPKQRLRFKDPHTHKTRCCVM

[4] = biological target: T3, Tyrosine-protein phosphatase non-receptor type 1 (Homo sapiens, UniProt P18031); assay: Inhibition of human PTP1B assessed as reduction in hydrolysis using DIFMUP as substrate incubated for 30 mins in presence of DTT by Fluorescence based method
T3 sequence (P18031 whole entry): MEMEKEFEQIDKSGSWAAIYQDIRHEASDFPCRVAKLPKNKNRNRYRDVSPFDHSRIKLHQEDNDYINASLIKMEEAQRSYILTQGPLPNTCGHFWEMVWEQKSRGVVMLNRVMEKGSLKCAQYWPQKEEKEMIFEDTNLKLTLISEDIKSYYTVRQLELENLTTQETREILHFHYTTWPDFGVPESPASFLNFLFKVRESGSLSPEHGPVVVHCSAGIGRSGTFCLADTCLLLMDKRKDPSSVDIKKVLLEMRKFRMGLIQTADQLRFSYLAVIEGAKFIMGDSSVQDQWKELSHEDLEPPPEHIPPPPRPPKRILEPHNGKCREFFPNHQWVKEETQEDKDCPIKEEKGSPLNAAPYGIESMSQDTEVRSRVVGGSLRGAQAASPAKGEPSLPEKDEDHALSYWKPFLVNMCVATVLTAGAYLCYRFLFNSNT

SMILES	pIC50 [1]	pIC50 [2]	pIC50 [3]	pIC50 [4]
N=C(N)c1ccc(OCCCCCOc2ccc(C(=N)N)cc2)cc1 [PENTAMIDINE]	6.52	6.52	6.52	–
Cc1cc2c(cc1C)CN(c1cccc(C(=O)N/N=C/c3ccc(C(=O)O)cc3)c1)C2	< 4.70	–	–	–
N=C1C(=O)NC(=O)c2cc(-c3ccccc3)sc21	–	–	–	< 4.10
